Source: patent publication US8133871B2, “Dihydropseudoerythromycin derivatives” (The Kitasato Institute, priority 2005, dated 2012)

These compounds were tested on THP-1 cells (assay: THP-1 differentiation induction-promoting activity). Settings: Homo sapiens, THP-1; lowest concentration necessary to show 50% activity relative to the activity value of erythromycin A at 100 μM; PMA 1-2 μM, 72-96 hr.
Assay type: cell-based
Procedure: As one index of the anti-inflammatory action of the compound of the present invention, the differentiation induction-promoting activity of THP-1 cell was measured. The measurement was performed as shown below.
THP-1 cells (ATCC No. TIB-202) were adjusted to a concentration of 2×10^5 cells/ml with a medium (RPMI 1640), PMA was added thereto to a final concentration of 1-2 μM, and the mixture was dispensed to each well of a 96 well plate by 100 μl. A solution (100 μl) containing a test substance was adjusted to an appropriate concentration with the medium and added to each well. The mixture was stirred by gently shaking the plate, and incubated under 37° C., 5% CO2 conditions for 72-96 hr. Each well was washed with PBS, a medium containing the viable cell measurement reagent SF (Nacalai Tesque) was added at 100 μl/well and the mixture was incubated under the conditions of 37° C., 5% CO2 for 3-5 hr. The absorbance was measured with a plate reader.
In the Table, the activity value is the lowest concentration necessary for the test compound to show a 50% activity value relative to the activity value of erythromycin A at 100 μM in this experiment.
THP-1 differentiation induction-promoting activity: The lowest concentration necessary for each compound to show 50% activity relative to the activity value of erythromycin A at 100 μM.
Compound `CC[C@@H](O)[C@@](C)(O)[C@@H]1OC(=O)[C@H](C)[C@@H](O[C@H]2CC(C)(OC)[C@@H](O)C(C)O2)[C@H](C)[C@@H](O[C@@H]2OC(C)CC(N(C)C)C2OC(C)=O)[C@]2(C)CC(C)C(O2)[C@@H]1C` (stereo partly shown) [EM913, 2′-O-acetyl-9-dihydro-pseudoerythromycin A 6,9-epoxide] has a minimal effective concentration of 30 µM. `CC[C@H]1OC(=O)O[C@@]1(C)[C@@H]1OC(=O)[C@H](C)C(=O)[C@H](C)[C@@H](O[C@@H]2OC(C)CC(N(C)C)C2O)[C@]2(C)CC(C)C(O2)[C@@H]1C` (stereo partly shown) [EM918, de(3-O-cladinosyl)-9-dihydro-3-keto-pseudoerythromycin A 6,9-epoxide 12,13-carbonate] was tested, and the minimal effective concentration was 30 µM. Work on `CC[C@H]1OC(C)(C)O[C@@]1(C)[C@@H]1OC(=O)[C@H](C)C(=O)[C@H](C)[C@@H](O[C@@H]2OC(C)CC(N(C)Cc3ccc(Cl)cc3)C2O)[C@]2(C)CC(C)C(O2)[C@@H]1C` (stereo partly shown) [EM947, de(3′-N-methyl)-3′-N-(p-chlorobenzyl)-de(3-O-cladinosyl)-9-dihydro-3-keto-pseudoerythromycin A 6,9-epoxide 12,13-isopropylidene Acetal] yielded a minimal effective concentration of 10 µM. `COC1(C)C[C@H](O[C@H]2[C@H](C)[C@@H](O[C@@H]3OC(C)CC(N(C)C)C3O)[C@]3(C)CC(C)C(O3)[C@H](C)[C@H](C(C)=O)OC(=O)[C@@H]2C)OC(C)[C@@H]1O` (stereo partly shown) [EM906, de[12-(1-hydroxypropyl)]-9-dihydro-12-oxo-pseudoerythromycin A 6,9-epoxide] showed a minimal effective concentration of 30 µM. `CC[C@H]1OC(=O)O[C@@]1(C)[C@@H]1OC(=O)[C@H](C)[C@@H](O)[C@H](C)[C@@H](O[C@@H]2OC(C)CC(N3CCOCC3)C2O)[C@]2(C)CC(C)C(O2)[C@@H]1C` (stereo partly shown) [EM946, de(3-O-cladinosyl)-9-dihydro-de(3′-dimethylamino)-3′-morpholino-pseudoerythromycin A 6,9-epoxide 12,13-carbonate] was tested, and the minimal effective concentration was 100 µM. `COC1(C)C[C@H](O[C@H]2[C@H](C)[C@@H](O[C@@H]3OC(C)CC(N(C)C)C3O)[C@]3(C)CC(C)C(O3)[C@H](C)[C@H](C(C)O)OC(=O)[C@@H]2C)OC(C)[C@@H]1O` (stereo partly shown) [EM908, de[12-(1-hydroxypropyl)]-9-dihydro-pseudoerythromycin A 6,9-epoxide] showed a minimal effective concentration of 10 µM. Work on `CC[C@H]1OC(=O)O[C@@]1(C)[C@@H]1OC(=O)[C@H](C)[C@@H](O)[C@H](C)[C@@H](O[C@@H]2OC(C)CC(N(C)C(=O)OCc3ccccc3)C2OC(=O)OCc2ccccc2)[C@]2(C)CC(C)C(O2)[C@@H]1C` (stereo partly shown) [EM936, de(3′-N-methyl)-2′-O-3′-N-bis(benzyloxycarbonyl)-de(3-O-cladinosyl)-9-dihydro-pseudoerythromycin A 6,9-epoxide 12,13-carbonate] yielded a minimal effective concentration of 10 µM. `CC[C@@H](O)[C@@](C)(O)[C@@H]1OC(=O)[C@H](C)[C@@H](O[C@H]2CC(C)(OC)[C@@H](O)C(C)O2)[C@H](C)[C@@H](O[C@@H]2OC(C)CC(N(C)Cc3ccccc3)C2O)[C@@]2(C)CC(C)C(O2)[C@@H]1C` (stereo partly shown) [EM902, de(3′-N-methyl)-3′-N-benzyl-9-dihydro-pseudoerythromycin A 6,9-epoxide] gave a minimal effective concentration of 30 µM. `CC[C@@H](O)[C@@](C)(O)[C@@H]1OC(=O)[C@H](C)[C@@H](O)[C@H](C)[C@H](O[C@@H]2OC(C)CC(N(C)Cc3ccc(Cl)cc3)C2O)[C@@]2(C)CC(C)C(O2)[C@@H]1C` (stereo partly shown) [EM925, de(3′-N-methyl)-3′-N-(p-chlorobenzyl)-de(3-O-cladinosyl)-9-dihydro-pseudoerythromycin A 6,9-epoxide] gave a minimal effective concentration of 30 µM. `CC[C@@H](O)[C@@](C)(O)[C@@H]1OC(=O)[C@H](C)[C@@H](O[C@H]2CC(C)(OC)[C@@H](O)C(C)O2)[C@H](C)[C@@H](O[C@@H]2OC(C)CC(N)C2O)[C@]2(C)CC(C)C(O2)[C@@H]1C` (stereo partly shown) [EM903, bis-de(3′-N-methyl)-9-dihydro-pseudoerythromycin A 6,9-epoxide] showed a minimal effective concentration of 30 µM.
